{
  "source": "patent US11400104B2",
  "about": "“Skeletal removal of bisphosphonates” (The Regents of the University of California, priority 2016, dated 2022)",
  "key": {"[1]": {"system": "mouse femur trabecular bone", "test": "micro CT evaluation of mouse femur trabecular structure (anti-resorptive function in vivo)", "details": "IV 184 μM×100 μL; femurs 2 weeks after injection; FIG. 14", "experimental": "FIG. 19A to FIG. 19C present evidence that certain alkylidene bisphosphonates can be used to displace active BPs in vivo in the mouse model. […] FIG. 19B outlines the protocol for the experiments using MHDP to treat C57B16 mice. An ONJ-like lesion was generated by ZOL IV injection into the mouse, followed by extraction of the maxillary first molar. One day prior to the tooth extraction, a group of mice received intra-oral injection of 2 μg MHDP and another group received IV injection of 100 μg MHDP. FIG. 19C presents images of the mouse maxilla.\nThis study determines the anti-resorptive function of FL-BP in vivo, as compared to ZOL. Female B6 mice were injected with 50 μM ZOL (n=6), 50 μM FL-BP (n=6) or 0.9% NaCl vehicle solution (control: n=6) via tail vein. Three weeks later, mice were euthanized and femur and L4/L5 were harvested. After fixed in 10% buffered formalin, bone samples were subjected to micro CT analysis. The anti-resorptive function were quantitatively established by the trabecular bone three-dimensional morphometry (e.g., BV/TV, Tb.N, Tb.Th, TbSp). FL-BPs with minimal or no pharmacological BP function are used.\nMice were IV injected with 0.9% NaCl (vehicle solution), ZOL (184 μM×100 μL=5.0 μg/animal) or AF647-ZOL (184 μM×100 μL=22.0 μg/animal) and femurs were harvested 2 weeks after injection. The micro CT data were compared."}, "[2]": {"system": "ZOL-induced mouse BRONJ model", "test": "ZOL-induced mouse BRONJ/ONJ model (ZOL IV injection followed by maxillary first molar extraction)", "type": "in vivo", "experimental": "AF647-ZOL was applied by intra-oral injection or IV injection 1 day prior to tooth extraction. FIG. 16B are images of mouse maxilla and the oral mucosa inflammation and swelling (white dotted lines, left and right panels) with various degrees of jawbone exposure (arrow) at the tooth extraction site of ZOL-treated mice (BRONJ control: n−4). […]\nPanel A is a diagram of the experimental time line. Mice treated by IV injection of ZOL (500 μg/kg) received an intra-oral injection of AF647-ZOL, MHDP or ETI (etidronate) one day prior to maxillary 1″ molar extraction. The development of ONJ was evaluated 14 days after tooth extraction.\nThe C57BL/6J (B6) mice model of ONJ is used. The consistent tissue source in this study is mouse maxillary bone with or without tooth extraction, as well as femurs, mandibles and L4/L5 lumber bones. Tooth extraction animal models for studying wound healing in mice have been well established in our and other laboratories. Systemic bisphosphonate treatment is accomplished by IV injection and the proposed local application of FL-BP is accomplished by intraoral injection to gingival/palatal tissue of mouse maxilla. Mice are subjected to maxillary molar extraction. After anesthesia and vital signs checked, the animal is placed on a bed supporting the isoflurane tubing while keeping the mouth opening. Ophthalmic ointment (bland, e.g., Lacrilube) is applied. The maxillary molar area is wiped with 0.12% Chlorhexidine gluconate solution (Peridex, oral rinse). An autoclaved dental explorer is used as an exodontia elevator after careful reflection of the cervical mucosa to minimize post-extraction discomfort. An autoclaved cotton swab is placed on the extraction socket until the initial blood coagulation is established. Maxillary 1st molar is then extracted unilaterally from so that the remaining untreated side can be utilized for chewing. In our previous experiments, the entire procedure takes about 5-15 minutes. […]\nIn a preliminary study female B6 mice were injected 500 μg/Kg ZOL (equivalent to 200 μl of 350 μM ZOL) via tail vein and one week later, maxillary left first molar was extracted. […]\nTherefore, as schematically shown in FIG. 19B mouse maxillae were treated with ZOL and then either 2 μg of MHDP was orally injected to the site of the molar to be extracted or 100 μg of MHDP was IV injected and the sites of molar extraction of treated mouse maxilla were compared to controls."}, "[3]": {"system": "mouse cranial bone", "test": "cranial bone displacement: AF647-ZOL pre-adsorbed via IV, FAM-ZOL sub-periosteal injection", "type": "in vivo", "details": "IV injection; cryo-cross sections", "experimental": "FIG. 12A to FIG. 12C show the displacement and replacement of AF647-ZOL and 5-FAM-ZOL. FIG. 12A are fluorescent images of cranial bone. AF647-ZOL (50 μM) was pre-adsorbed on cranial bone via IV injection. 5-FAM-ZOL at the indicated doses was directly injected to the sub-periosteal space. […] The first bars of each set are for AF647-ZOL and the second bars of each set are for 5-FAM-ZOL. *, P<0.05 vs Veh by Dunnett's test.\nMice were pre-treated by 100 μl of 50 μM AF647-ZOL retro-orbital IV injection. Six days later, mice received sub-periosteal injection to cranial bone with 10 μl of 0 μM, 1 μM, 10 μM, or 50 μM FAM-ZOL. The cranial bone was harvested and soft tissues were removed. The fluorescent signals of AF647 and FAM were measured by standardized fluorescent biophotonics. The cranial bones were then prepared for cryosection. Cross-sections were made by the tape method and evaluated by confocal laser scanning microscopy."}, "[4]": {"details": "AF647-ZOL IV 500 μM×100 μL 1 day before extraction, 2 weeks after extraction"}},
  "note": "“Also recorded” adds a separate entry of the source.",
  "data": [
    {"smiles": "CC1(C)C(C=CC=CC=C2N(CCCS(=O)(=O)O)c3ccc(S(=O)(=O)O)cc3C2(C)CCCCCC(=O)NCC(O)C[n+]2ccn(CC(O)(P(=O)(O)O)P(=O)(O)O)c2)=[N+](CCCS(=O)(=O)O)c2ccc(S(=O)(=O)O)cc21", "note": "(stereo not shown) [AF647-ZOL]", "values": [
      {"measurement": "bone structural parameters", "setting": "[1]", "result": "did not change any of bone structural parameters"},
      {"measurement": "histology of maxilla at the tooth extraction site: ONJ-like lesion", "setting": "[2]; 2 weeks after extraction, one time oral injection in ZOL-mice, FIG. 20", "result": "did not develop an ONJ-like lesion"},
      {"measurement": "BRONJ-like lesions, jawbone exposure", "setting": "[2]; [4]", "result": "jawbone exposure was much attenuated; also recorded: attenuated BRONJ-like lesions"},
      {"measurement": "oral mucosa inflammation/swelling", "setting": "[2]; [4]", "result": "some mice which received an AF647-ZOL IV injection showed signs of oral mucosa inflammation/swelling"},
      {"measurement": "prevention of BRONJ, tooth extraction wound healing", "setting": "[2]; AF647-ZOL intra-oral 250 μM×2 μL 1 day before extraction, 2 weeks after extraction", "result": "complete prevention of BRONJ; also recorded: excellent tooth extraction wound healing without chronic inflammation or swelling"},
      {"measurement": "development of ONJ-like lesions at the tooth extraction sites", "setting": "[2]; ZOL 500 μg/kg IV, intra-oral injection one day prior to extraction, 14 days after extraction, FIG. 21", "result": "appeared to be prevented"},
      {"measurement": "location of AF647-ZOL labeling in cranial bone", "setting": "[3]", "result": "external and internal bone surfaces, as well as trabecular surface"}
    ]}
  ]
}
